Patent US20260028390A1, “ALPHA1-ANTITRYPSIN FOR USE IN THE TREATMENT OF DISEASES OR DISORDERS OF THE NERVOUS SYSTEM SUCH AS CHRONIC INFLAMMATORY DEMYELINATING POLYNEUROPATHY” (Ageronix SA, priority 2022, published 2026)
“And” between values parts separate entries of the source, which are not always exact repeats. Equal entries are not always repeated.

Key:
[1] = Body weight, CMT1A mouse study (AAT 50 mg/kg sc twice daily); format: in vivo
Excerpt: (§1) As a murine model of CMT1A we used C3-PMP22 transgenic mice (B6.Cg-Tg(PMP22)C3Fbas/J, The Jackson Laboratory) which express three copies of a wild-type human peripheral myelin protein 22 (PMP22) gene (Verhamme, Camiel, et al. Journal of Neuropathology & Experimental Neurology 70.5 (2011): 386-398). Mice were housed in macrolon cages with filter hoods, in a continuously air-filtered room, thereby avoiding contamination. During experiments, paired animals were caged at a constant temperature with a day/night cycle of 12/12 hours. Animals were fed (control tap water and nutrition) ad libitum. Animal protocol is approved by the Animal Studies Committee of Languedoc Roussillon. This protocol and the laboratory procedures comply with French legislation, which implements the European Directives (Reference Number: D3417223, APAFIS #23920-2020020320279696 v3). Animal health was followed on a daily basis to ensure that only animals in good health enter the testing procedures and follow up the study.
(§2) Animals were split in 3 groups (wild-type control (subcutaneous 0.9% NaCl), CMT1A-vehicle (subcutaneous 0.9% NaCl), CMT1A-human alpha-1 antitrypsin (subcutaneous, twice daily, 50 mg/kg per injection)) of 3 mice each (3 weeks old males of 18±2.5 g at the beginning of study) and all went through the following protocol after 7 days of acclimation on site.

[2] = tested on: C3-PMP22 transgenic mice (CMT1A); test: Sciatic nerve electrophysiology (EMG), CMT1A mouse study (50 mg/kg twice daily); format: in vivo; details: for Compound muscle action potential (Mean ± SEM) / Nerve conduction velocity (Mean ± SEM): CMT1A + AAT; for Amplitude, MEAN / Amplitude, individual mice / Conduction velocity, MEAN / Conduction velocity, individual mice / T1 distal, individual mice / T2 proximal, individual mice: CMT1A + hAAT
Excerpt: as §1, §2
(§3) On the first and last day of treatment, the neuromuscular performance of animals was tested with a rotarod test, grip test and sciatic nerve electrophysiology test. After the last treatment at 8 weeks, these tests were repeated, and animals were sacrificed and the left sciatic nerve was sampled for histological evaluation of the number and size of […].
Sciatic nerve electrophysiology (EMG) provides sensitive and quantitative approach to measure compound muscle action potential and nerve conduction velocity amplitude in the animals and was done by stimulation of the sciatic nerve. Similar compound muscle action potential (CMAP) amplitudes were observed between groups at the baseline (6 weeks old).

[3] = tested on: C3-PMP22 transgenic mice (CMT1A); test: Grip strength test, CMT1A mouse study (50 mg/kg twice daily); format: in vivo; details: for Grip strength (Mean ± SEM) / Grip strenght, Mean/animal / Grip strenght, set 1, individual animals / Grip strenght, set 2, individual animals / Grip strenght, set 3, individual animals: CMT1A + AAT
Excerpt: as §1, §2, §3
Grip strength test measures neuromuscular strength by assessing the animal's grasp of a metal grid. […] At the baseline, the differences of grip strengths between groups were not statistically significant.

SH-SY5Y cells = test: Cell viability assay (CCK-8) of SH-SY5Y treated with 6-OHDA; format: cell-based; details: 6-OHDA combined with AAT 25 μM, CCK-8 absorbance 450 nm
Protocol: SH-SY5Y cells, which are commonly used to model neurodegenerative disorders, were used to produce an in vitro Parkinson's model (Que R, et al., 2021, Front. Immunol. 12). Cells were cultured in DMEMF12/Glutamax supplemented with 10% FBS.
Cells were treated for 24 hours with the neurotoxin 6-hydroxydopamine (6-OHDA, Sigma Aldrich 162957) at 50, 100 μM concentrations alone or in combination with AAT 25 μM (AAT plasma derived, Sigma Aldrich batch A9024). Cells treated with AAT alone or in combination with 6-OHDA for 24 hours, were then incubated with fresh AAT for additional 24 hours. Control cells were treated with PBS.
At day 0 cells were plated in equally number in 24-well plate, the day after they were treated as described above, and final total cell count was performed at day 4 of culture (cell growth). Cell viability was assessed with Cell Counting Kit-8 (CCK-8; Sigma Aldrich 96992). After treatments, cells were incubated with 10 μl of CCK-8 solution for 2 hours in the incubator. Absorbance was measured at 450 nm using SpectraMax iD3 Microplate Reader. Experiments were performed in triplicate.

CIDP mice = test: Sciatic nerve histology, CIDP mouse model; format: in vivo
Protocol: C57BL/6 mice were received at 8 weeks of age and housed under controlled conditions for the duration of the study. Three groups of 4 animals each were assigned to the following subcutaneous treatments twice daily at 7:00 AM and 7:00 PM for 2 weeks, from 20 to 35 days after the start of disease induction: • Wild type (WT) mice receiving the vehicle, 0.9% NaCl (positive control) • CIDP mice receiving the vehicle, 0.9% NaCl (negative control) • CIDP mice receiving human AAT (AAT), 50 mg/kg per injection
Disease induction consisted in subcutaneous injection of mouse sciatic nerve homogenate in phosphate buffer saline (PBS)+Freund's adjuvant mixture at 10 mL/kg. For each treatment, 3 different body sites injections were performed. Control mice also received three subcutaneous injections of PBS+Freund's adjuvant at the same 3 different body sites.
On the first (Day 20) and last (Day 35) day of treatment, the neuromuscular and performance of animals was tested with a rotarod test, grip test and a sensory test using the Von Frey filament test, as well as sciatic nerve electrophysiology test. After the last treatment at Day 35, these tests were repeated, animals were sacrificed and the left sciatic nerve was sampled for histological evaluation of the number and size of […].

[4] = CMT1A mice treated with AAT, 8 weeks old
[5] = CIDP mice, day 35, AAT 50 mg/kg sc twice daily

## alpha1-antitrypsin (AAT) protein
[1]; CMT1A + hAAT, 3rd column, head prints 6 weeks old, in g (unit assumed)
  Body weight, MEAN: 19.73
[1]; CMT1A + hAAT, 3rd column, head prints 6 weeks old, listed as hAAT, in g (unit assumed)
  Body weight, individual mice: 19.6 and 20.5 and 19.1
[1]; CMT1A mice, 50 mg/kg sc twice daily, two weeks
  body weight loss in the AAT treated group compared to the vehicle group: no observable body weight loss
[2]; CMT1A + AAT treated group, 8 weeks old
  NCV compared to the vehicle treated group: increase
[2]; 6 weeks old
  Compound muscle action potential (Mean ± SEM): 6.47 ± 0.30 mV
  Nerve conduction velocity (Mean ± SEM): 24.91 ± 4.13 m/s
[2]; 8 weeks old
  Nerve conduction velocity (Mean ± SEM): 20.89 ± 1.63 m/s
  Amplitude, MEAN: 5.627 mV
  Amplitude, individual mice: 3.799 mV and 5.260 mV and 7.822 mV
  Conduction velocity, MEAN: 20.892 m/s
  Conduction velocity, individual mice: 23.904 m/s and 18.310 m/s and 20.464 m/s
  T1 distal, individual mice: 0.00251 s and 0.00236 s and 0.00228 s
  T2 proximal, individual mice: 0.00313 s and 0.00318 s and 0.00302 s
[2]; 8 weeks old, p < 0.05 vs CMT1A + vehicle
  Compound muscle action potential (Mean ± SEM): 5.63 ± 1.18 mV
[2]; 6 weeks old (baseline)
  Amplitude, MEAN: 6.471 mV
  Amplitude, individual mice: 7.030 mV and 6.025 mV and 6.359 mV
  Conduction velocity, MEAN: 24.909 m/s
  Conduction velocity, individual mice: 31.277 m/s and 17.182 m/s and 26.268 m/s
  T1 distal, individual mice: 0.00202 s and 0.00207 s and 0.0016 s
  T2 proximal, individual mice: 0.0025 s and 0.00295 s and 0.00217 s
[2]; [4]
  EMG parameters compared to the control: improvement
[3]; 6 weeks old
  Grip strength (Mean ± SEM): 5.86 ± 0.57 newtons
[3]; 6 weeks old (baseline)
  Grip strenght, Mean/animal: 5.10 Newtons and 6.97 Newtons and 5.51 Newtons
  Grip strenght, set 1, individual animals: 5.84 Newtons and 7.10 Newtons and 5.94 Newtons
  Grip strenght, set 2, individual animals: 7.62 Newtons and 7.19 Newtons and 3.08 Newtons
  Grip strenght, set 3, individual animals: 1.82 Newtons and 6.62 Newtons and 7.52 Newtons
[3]; 8 weeks old
  Grip strenght, Mean/animal: 5.45 Newtons and 4.86 Newtons and 3.88 Newtons
  Grip strenght, set 1, individual animals: 6.55 Newtons and 4.01 Newtons and 2.76 Newtons
  Grip strenght, set 2, individual animals: 4.38 Newtons and 6.93 Newtons and 3.67 Newtons
  Grip strenght, set 3, individual animals: 5.43 Newtons and 3.63 Newtons and 5.21 Newtons
  Grip strength (Mean ± SEM): 4.73 ± 0.46 newtons
[3]; [4]
  grip strength compared to the control group: improvement
SH-SY5Y cells
  cell count and viability compared to 6-OHDA treatment alone: significantly enhanced
CIDP mice; CIDP + AAT, day 35
  axonal diameter compared to the CIDP+vehicle treated group: significant increase
  g-ratio compared to the CIDP+vehicle treated group: decrease
  total number of axons per surface compared to the vehicle treated group: Slight but non-significant increase
CIDP mice; [5]
  Sciatic nerve histology, Axonal diameter (Mean ± SEM): 3.82 ± 0.09 μm
  Sciatic nerve histology, Axons/100 μm^2 (Mean ± SEM): 26.00 ± 2.10
  Sciatic nerve histology, g-ratio (Mean ± SEM): 0.715 ± 0.008
